Laboratory results reported in patent publication US20220089575A1, “FARNESOID X RECEPTOR AGONISTS AND USES THEREOF” (Metacrine, Inc., priority 2017, published 2022).

Each compound was assayed against T1, hFXR (Homo sapiens, UniProt Q96RI1) (assay: In Vitro FXR Assay (TK): TK-ECRE-luc reporter in transfected CV-1 cells). Settings: 18 hrs, luminescence, maximum efficacy of <25% of the Fexarmine control classified as '+'.
T1 construct: expressed in transfected cells; host or cells: CV-1 cells
T1 sequence (Q96RI1 1-486): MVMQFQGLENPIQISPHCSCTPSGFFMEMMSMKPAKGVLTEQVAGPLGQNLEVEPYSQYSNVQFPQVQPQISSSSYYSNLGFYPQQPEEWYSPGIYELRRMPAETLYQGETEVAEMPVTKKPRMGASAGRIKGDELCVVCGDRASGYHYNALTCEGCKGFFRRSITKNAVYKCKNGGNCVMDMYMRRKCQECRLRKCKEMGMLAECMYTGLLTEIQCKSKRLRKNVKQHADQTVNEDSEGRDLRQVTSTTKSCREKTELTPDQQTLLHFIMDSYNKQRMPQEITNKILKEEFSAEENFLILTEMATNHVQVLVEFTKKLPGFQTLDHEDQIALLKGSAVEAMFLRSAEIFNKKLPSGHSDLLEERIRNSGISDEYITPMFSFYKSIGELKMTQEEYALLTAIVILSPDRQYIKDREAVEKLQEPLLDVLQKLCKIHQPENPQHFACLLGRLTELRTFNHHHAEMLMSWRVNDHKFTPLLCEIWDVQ
T1 sequence (P19793 1-462 partner): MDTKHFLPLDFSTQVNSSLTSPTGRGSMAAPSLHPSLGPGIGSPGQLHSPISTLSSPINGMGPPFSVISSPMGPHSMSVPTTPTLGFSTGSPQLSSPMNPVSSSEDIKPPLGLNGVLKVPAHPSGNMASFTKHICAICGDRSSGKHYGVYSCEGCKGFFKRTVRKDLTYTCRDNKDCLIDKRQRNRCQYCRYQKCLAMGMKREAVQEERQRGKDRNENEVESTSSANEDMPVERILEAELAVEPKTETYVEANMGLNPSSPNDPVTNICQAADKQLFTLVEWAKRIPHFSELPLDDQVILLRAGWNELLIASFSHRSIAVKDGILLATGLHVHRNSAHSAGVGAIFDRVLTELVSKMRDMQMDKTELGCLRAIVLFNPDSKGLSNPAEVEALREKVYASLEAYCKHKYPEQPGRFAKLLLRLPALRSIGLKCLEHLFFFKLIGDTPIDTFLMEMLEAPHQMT
Assay type: cell-based
Description: CV-1 cells were seeded at a density of 2,000,000 cells in a T175 flask with DMEM+10% charcoal double-stripped FBS and incubated at 37° C. in 5% CO2 for 18 h (O/N).
After 18 h of incubation, the medium in the T175 flask was changed with fresh DMEM+10% charcoal super-stripped serum. In a polypropylene tube, 2500 μL OptiMEM (Life Technologies, Cat #31985-062) was combined with expression plasmids for hFXR, hRXR, TK-ECRE-luc and pCMX-YFP. The tube was then briefly vortexed and incubated at room temperature for 5 minutes. Transfection reagent (X-tremeGENE HP from Roche, Cat #06 366 236 001) was added to the OptiMEM/plasmid mixture vortexed and incubated at room temperature for 20 minutes. Following incubation, the transfection reagent/DNA mixture complex was added to cells in the T175 flask and the cells were incubated at 37° C. in 5% CO2 for 18 h (O/N).
Compounds were serially diluted in DMSO and added to transfected CV-1 cells. The cells were then incubated for 18 hrs. The next day cells were lysed and examined for luminescence.
Compound `COc1ccc([C@H]2CC[C@H](CN(c3cccc(-c4cnn(C5CC5)c4)c3)C(=O)[C@H]3CC[C@H](CC(=O)O)CC3)CC2)cc1C` [Compound 20.09, 2-(trans-4-((3-(1-Cyclopropyl-1H-pyrazol-4-yl)phenyl)((trans-4-(4-methoxy-3-methylphenyl)cyclohexyl)methyl)carbamoyl)cyclohexyl)acetic acid] has an EC50 of no more than 0.25 µM.
Work on `CN(C)c1ccc([C@H]2CC[C@H](CN(c3cccc(-c4coc(C5CC5)n4)c3)C(=O)[C@H]3CC[C@H](C(=O)O)CC3)CC2)cn1` [Compound 18.04, trans-4-((3-(2-Cyclopropyloxazol-4-yl)phenyl)((trans-4-(6-(dimethylamino)pyridine-3-yl)cyclohexyl)methyl)carbamoyl) cyclohexanecarboxylic acid] yielded an EC50 of no more than 0.25 µM.
`COc1ccc([C@H]2CC[C@H](CN(c3cccc(-c4cnc(C5CC5)s4)c3)C(=O)[C@H]3CC[C@H](CC(=O)O)CC3)CC2)cc1C#N` [Compound 20, 2-(trans-4-(((trans-4-(3-Cyano-4-methoxyphenyl)cyclohexyl)methyl)(3-(2-cyclopropylthiazol-5-yl)phenyl)carbamoyl)cyclohexyl)acetic acid] showed an EC50 of no more than 0.25 µM.
For `CNC(=O)O[C@H]1CC[C@@H](C(=O)N(CC2CCC(c3ccc(OC)c(C#N)c3)CC2)c2cc(-c3cnn(C(C)C)c3)ccn2)CC1` (stereo partly drawn) [Compound 5.19, cis-4-(((4-(3-Cyano-4-methoxyphenyl)cyclohexyl)methyl)(4-(1-isopropyl-1H-pyrazol-4-yl)pyridin-2-yl)carbamoyl)cyclohexyl methylcarbamate], the EC50 was no more than 0.25 µM.
For `COc1ccc([C@H]2CC[C@H](CN(c3cc(-c4coc(C5CC5)n4)ccn3)C(=O)[C@H]3CC[C@H](OC(=O)N4CC(C(C)(C)O)C4)CC3)CC2)nc1C` [Compound 7.99, trans-4-((4-(2-Cyclopropyloxazol-4-yl)pyridine-2-yl)((trans-4-(5-methoxy-6-methylpyridin-2-yl)cyclohexyl)methyl)carbamoyl)cyclohexyl 3-(2-hydroxypropan-2-yl)azetidine-1-carboxylate], the EC50 was no more than 0.25 µM.
For `COc1ccc([C@H]2CC[C@H](CN(c3cccc(-c4cnc(C(C)C)s4)c3)C(=O)[C@H]3CC[C@H](OC(=O)NCCCO)CC3)CC2)nc1C` [Compound 6.05], the EC50 was no more than 0.25 µM.
`COc1ccc([C@H]2CC[C@H](CN(c3cccc(-c4cnn(C(C)C)c4)c3)C(=O)[C@H]3CC[C@H](NCC(=O)O)CC3)CC2)cc1C` [Compound 29, 2-((trans-4-((3-(1-Isopropyl-1H-pyrazol-4-yl)phenyl)((trans-4-(4-methoxy-3-methylphenyl)cyclohexyl)methyl)carbamoyl)cyclohexyl)amino)acetic Acid] showed an EC50 of no less than 1 µM.
Work on `COc1ccc([C@H]2CC[C@H](CN(c3cc(-c4cnn(C(C)C)c4)ccn3)C(=O)[C@H]3CC[C@H](CC(=O)O)CC3)CC2)nc1C` [Compound 17.25, 2-(trans-4-((4-(1-Isopropyl-1H-pyrazol-4-yl)pyridin-2-yl)((trans-4-(5-methoxy-6-methylpyridin-2-yl)cyclohexyl)methyl)carbamoyl)cyclohexyl) acetic acid] yielded an EC50 of no more than 0.25 µM.
In the case of `COc1ccc([C@H]2CC[C@H](CN(c3cc(-c4cnc(C5CC5)s4)ccn3)C(=O)[C@H]3CC[C@H](CC(=O)O)CC3)CC2)cc1C` [Compound 20.02, 2-(trans-4-((4-(2-Cyclopropylthiazol-5-yl)pyridin-2-yl)((trans-4-(4-methoxy-3-methylphenyl)cyclohexyl)methyl)carbamoyl)cyclohexyl)acetic acid], the EC50 is reported as no more than 0.25 µM.
`CCC(O)C(C)NC(=O)O[C@H]1CC[C@H](C(=O)N(C[C@H]2CC[C@H](c3ccc(OC)c(C)n3)CC2)c2cc(-c3coc(C4CC4)n3)ccn2)CC1` (stereo partly drawn) [Compound 6.88, trans-4-((4-(2-Cyclopropyloxazol-4-yl)pyridin-2-yl)((trans-4-(5-methoxy-6-methylpyridin-2-yl)cyclohexyl)methyl)carbamoyl)cyclohexyl (3-hydroxypentan-2-yl)carbamate] was tested, and the EC50 was no more than 0.25 µM.
Work on `COc1ccc([C@H]2CC[C@H](CN(c3cccc(-c4coc(C(C)C)n4)c3)C(=O)[C@H]3CC[C@H](CC(=O)O)CC3)CC2)cc1C#N` [Compound 21.10, 2-(trans-4-(((trans-4-(3-Cyano-4-methoxyphenyl)cyclohexyl)methyl)(3-(2-isopropyloxazol-4-yl)phenyl)carbamoyl)cyclohexyl)acetic acid] yielded an EC50 of no more than 0.25 µM.
`CNC(=O)O[C@H]1CC[C@H](C(=O)N(C[C@H]2CC[C@H](c3ccc(OC)c(C#N)n3)CC2)c2cc(-c3cnn(C(C)C)c3)ccn2)CC1` [Compound 5.26, trans-4-(((trans-4-(6-Cyano-5-methoxypyridin-2-yl)cyclohexyl)methyl)(4-(1-isopropyl-1H-pyrazol-4-yl)pyridin-2-yl)carbamoyl)cyclohexyl methylcarbamate] showed an EC50 of no more than 0.25 µM.
Compound `CNC(=O)O[C@H]1CC[C@H](C(=O)N(C[C@H]2CC[C@H](c3ccc(OC)c(C#N)n3)CC2)c2cccc(-c3coc(C4CC4)n3)c2)CC1` [Compound 5.42, trans-4-(((trans-4-(6-Cyano-5-methoxypyridin-2-yl)cyclohexyl)methyl)(3-(2-cyclopropyloxazol-4-yl)phenyl)carbamoyl)cyclohexyl methylcarbamate] has an EC50 of no more than 0.25 µM.
`COc1ccc([C@H]2CC[C@H](CN(c3cccc(-c4cnn(C5CC5)c4)c3)C(=O)[C@H]3CC[C@H](OC(=O)N4CC(O)C4)CC3)CC2)nc1C#N` [Compound 7.33, trans-4-(((trans-4-(6-Cyano-5-methoxypyridin-2-yl)cyclohexyl)methyl)(3-(1-cyclopropyl-1H-pyrazol-4-yl)phenyl)carbamoyl) cyclohexyl 3-hydroxyazetidine-1-carboxylate] was tested, and the EC50 was no more than 0.25 µM.
`COc1ccc([C@H]2CC[C@H](CN(c3cccc(-c4cnn(C5CC5)c4)c3)C(=O)[C@H]3CC[C@H](OC(=O)NC4CC4)CC3)CC2)cc1C` [Compound 4.08, trans-4-((3-(1-Cyclopropyl-1H-pyrazol-4-yl)phenyl)((trans-4-(4-methoxy-3-methylphenyl)cyclohexyl)methyl)carbamoyl)cyclohexyl cyclopropylcarbamate] showed an EC50 of no more than 0.25 µM.
With `CNCCOCC(=O)N[C@H]1CC[C@H](C(=O)N(C[C@H]2CC[C@H](c3ccc(OC)c(C)c3)CC2)c2cccc(-c3cnc(C4CC4)s3)c2)CC1` [Compound 32.06, trans-N-(3-(2-Cyclopropylthiazol-5-yl)phenyl)-N-((trans-4-(4-methoxy-3-methylphenyl)cyclohexyl)methyl)-4-(2-(2-(methylamino)ethoxy)acetamido) cyclohexanecarboxamide] the EC50 was no less than 1 µM.
`COc1ccc([C@H]2CC[C@H](CN(c3cc(-c4cnn(C(C)C)c4)ccn3)C(=O)[C@H]3CC[C@H](OC(=O)N4CC(N(C)C)C4)CC3)CC2)cc1C#N` [Compound 7.50, trans-4-(((trans-4-(3-Cyano-4-methoxyphenyl)cyclohexyl)methyl)(4-(1-isopropyl-1H-pyrazol-4-yl)pyridin-2-yl)carbamoyl)cyclohexyl 3-(dimethylamino)azetidine-1-carboxylate] gave an EC50 of no more than 0.25 µM.
`COc1ccc([C@H]2CC[C@H](CN(c3cccc(-c4cnn(C(C)C)c4)c3)C(=O)[C@H]3CC[C@H](NC(=O)CO)CC3)CC2)cc1C` [Compound 26.12, trans-4-(2-Hydroxyacetamido)-N-(3-(1-isopropyl-1H-pyrazol-4-yl)phenyl)-N-((trans-4-(4-methoxy-3-methylphenyl)cyclohexyl)methyl) cyclohexanecarboxamide] was tested, and the EC50 was no more than 0.25 µM.
